The text below walks through data of ChEMBL document CHEMBL5046297, “Discovery of a Colon-Targeted Azo Prodrug of Tofacitinib through the Establishment of Colon-Specific Delivery Systems Constructed by 5-ASA-PABA-MAC and 5-ASA-PABA-Diamine for the Treatment of Ulcerative Colitis” (J Med Chem, 2022).

Data set [1] is described as follows: Chemical stability of compound in pH 4.5 PBS buffer at 100 uM incubated for 24 hrs by HPLC analysis. Type of data set: physicochemical. Particulars: pH 4.5, 24 h.
Data set [2] in a line: Chemical stability of compound in pH 1.2 HCl buffer at 100 uM incubated for 24 hrs by HPLC analysis. Type of data set: physicochemical. The conditions noted are these: pH 1.2, 24 h.
A short description of data set [3]: Chemical stability in simulated intestinal fluid assessed as parent compound remaining incubated for 12 hrs by LC-MS/MS analysis. The data set is classed as ADME, physicochemical. Particulars: simulated gi fluid.
The nature of data set [4]: Prodrug conversion in Sprague-Dawley rat colon content suspension assessed as tofacitinib release measured upto 8 hrs by HPLC analysis. The data set is classed as ADME, tissue-based.
Data set [5] can be described thus: Chemical stability in simulated gastric fluid assessed as parent compound remaining incubated for 12 hrs by LC-MS/MS analysis. Type of data set: ADME, physicochemical. The conditions noted are these: simulated gi fluid.
The nature of data set [6]: Chemical stability of compound in pH 7.4 PBS buffer at 100 uM incubated for 24 hrs by HPLC analysis. Type of data set: physicochemical. Particulars: pH 7.4, 24 h.
Data set [7] is described as follows: Prodrug conversion in BALB/c mouse plasma assessed as tofacitinib AUC(0 to 12 hrs) at 15 mg/kg, po measured upto 12 hrs by LC-MS/MS analysis. The data set is classed as ADME, organism-based. The conditions noted are these: in vivo. More on the design: route oral, dose 15 mg/kg, time <=12.
Data set [8] is described as follows: Prodrug conversion in BALB/c mouse colon assessed as tofacitinib AUC(0 to 12 hrs) at 15 mg/kg, po measured upto 12 hrs by LC-MS/MS analysis. The data set is classed as ADME, organism-based. Also noted: route oral, dose 15 mg/kg, time <=12. Particulars: in vivo.
A short description of data set [9]: Prodrug conversion in Sprague-Dawley rat assessed as AUC (0 to infinity) of tofacitinib at 15 mg/kg, po measured up to 12 hrs by LC-MS/MS analysis. The data set is classed as ADME, organism-based. Also noted: route oral, dose 15 mg/kg, time <=12. Particulars: in vivo.
A short description of data set [10]: Prodrug conversion in BALB/c mouse jejunum assessed as tofacitinib AUC(0 to 12 hrs) at 15 mg/kg, po measured upto 12 hrs by LC-MS/MS analysis. Also noted: route oral, dose 15 mg/kg, time <=12. The conditions noted are these: in vivo. The data set is classed as ADME, organism-based.
Data set [11] can be described thus: Prodrug conversion in Sprague-Dawley rat assessed as Cmax of tofacitinib at 15 mg/kg, po measured up to 12 hrs by LC-MS/MS analysis. Type of data set: ADME, organism-based. Also noted: route oral, dose 15 mg/kg, time <=12. The conditions noted are these: in vivo.
Data set [12] in a line: Prodrug conversion in BALB/c mouse ileum assessed as tofacitinib AUC(0 to 12 hrs) at 15 mg/kg, po measured upto 12 hrs by LC-MS/MS analysis. The conditions noted are these: in vivo. Also noted: route oral, dose 15 mg/kg, time <=12. Type of data set: ADME, organism-based.
Data set [13] is described as follows: Prodrug conversion in Sprague-Dawley rat assessed as elimination half life of tofacitinib at 15 mg/kg, po measured up to 12 hrs by LC-MS/MS analysis. Type of data set: ADME, organism-based. The conditions noted are these: in vivo.
Data set [14] in a line: Prodrug conversion in Sprague-Dawley rat assessed as Tmax of tofacitinib at 15 mg/kg, po measured up to 12 hrs by LC-MS/MS analysis. The data set is classed as ADME, organism-based. Particulars: in vivo.
Data set [15] is described as follows: Prodrug conversion in BALB/c mouse duodenum assessed as tofacitinib AUC(0 to 12 hrs) at 15 mg/kg, po measured upto 12 hrs by LC-MS/MS analysis. Also noted: route oral, dose 15 mg/kg, time <=12. The conditions noted are these: in vivo. Type of data set: ADME, organism-based.

The term AUC denotes concentration integrated over time. As usually defined, the Cmax is the highest concentration seen after dosing. The Tmax is the time at which the peak concentration occurs.

As for `COc1cc(/N=N/c2ccc(O)c(C(=O)O)c2)ccc1COC(=O)N(C)CCN(C)C(=O)n1ccc2c(N(C)[C@H]3CN(C(=O)CC#N)CC[C@H]3C)ncnc21`, the Stability result in [1], in data set [2], in data set [3], in data set [5] and in [6] was “Stable” throughout. In addition, the Drug metabolism in [4] was 2.44 mmol/L/h.

Consider `C[C@@H]1CCN(C(=O)CC#N)C[C@@H]1N(C)c1ncnc2[nH]ccc12.O=C(O)CC(O)(CC(=O)O)C(=O)O` [TOFACITINIB CITRATE], for which the AUC stood at 7.1 µM·h in data set [7]; 167 µM·h in data set [8]; 70.66 µM·h in data set [9]; 43 µM·h in data set [10]; 50.3 µM·h in data set [12]; 67 µM·h in data set [15]. Besides, the peak concentration (Cmax) in data set [11] came out at 54.9 µM. In data set [13], the “beta t1/2” value came to 3.94 h. For the same compound, the Tmax in [14] worked out at 0.42 h.

`C[C@@H]1CCN(C(=O)CC#N)C[C@@H]1N(C)c1ncnc2c1ccn2C(=O)N(C)CCN(C)C(=O)OCc1ccc(/N=N/c2ccc(O)c(C(=O)O)c2)c(Cl)c1`: the Stability result in [1], in data set [2], in [3], in data set [5] and in data set [6] was “Stable” throughout. Moreover, the Drug metabolism in data set [4] stood at 2.93 mmol/L/h.

As for `Cc1cc(/N=N/c2ccc(O)c(C(=O)O)c2)ccc1COC(=O)N(C)CCN(C)C(=O)n1ccc2c(N(C)[C@H]3CN(C(=O)CC#N)CC[C@H]3C)ncnc21`, the Stability entry in [1], in data set [2], in data set [3], in data set [5] and in [6] was “Stable” each time. Further, the Drug metabolism in data set [4] is 2.72 mmol/L/h.

On to `C[C@@H]1CCN(C(=O)CC#N)C[C@@H]1N(C)c1ncnc2c1ccn2CNC(=O)OCc1ccc(/N=N/c2ccc(O)c(C(=O)O)c2)cc1`, for which the Stability result in data set [1], in data set [2], in data set [3], in data set [5] and in data set [6] was “Stable” each time. Besides, the Drug metabolism in [4] worked out at 2.87 mmol/L/h.

For the compound `C[C@@H]1CCN(C(=O)CC#N)C[C@@H]1N(C)c1ncnc2c1ccn2C(=O)N(C)CCN(C)C(=O)OCc1ccc(/N=N/c2ccc(O)c(C(=O)O)c2)cc1`, the Stability result in data set [1], in data set [2], in data set [3], in data set [5] and in data set [6] was “Stable” throughout. For the same compound, the Drug metabolism in data set [4] turned out to be 2.114 mmol/L/h.

Turning to `COc1cc(COC(=O)N(C)CCN(C)C(=O)n2ccc3c(N(C)[C@H]4CN(C(=O)CC#N)CC[C@H]4C)ncnc32)ccc1/N=N/c1ccc(O)c(C(=O)O)c1`, the Stability entry in [1], in data set [2], in [3], in data set [5] and in [6] was “Stable” each time. For the same compound, the Drug metabolism in data set [4] was determined as 2.46 mmol/L/h.

Turning to `Cc1cc(COC(=O)N(C)CCN(C)C(=O)n2ccc3c(N(C)[C@H]4CN(C(=O)CC#N)CC[C@H]4C)ncnc32)ccc1/N=N/c1ccc(O)c(C(=O)O)c1`, the Stability result in [1], in [2], in [3], in data set [5] and in data set [6] was “Stable” in each case. The Drug metabolism in [4] is 1.6 mmol/L/h.
